Key:
integrin α4β1 = molecular target: T1, integrin α4β1 (Homo sapiens, UniProt P05556+P13612); experiment: VCAM antagonist activity (VCAM-1/α4β1 binding assay); format: cell-based; details: Jurkat cells binding to VCAM-1; read-out: VCAM antagonistic activity (IC50) α4β1
T1 construct: cell strain Jurkat (ATCC TIB-152) of human T cells, known to express integrin α4β1; host or cells: Jurkat (human T cell line)
Experimental: (Test Example) VCAM Antagonist Activity (VCAM-1/α4β1 Binding Assay):
The capacity of a test substance antagonistic to the binding of cell strain Jurkat (ATCC TIB-152) of human T cells, known to express integrin α4β1, to VCAM-1 was determined.
(§1) 100 μl/well of a solution (500 ng/ml) of recombinant human VCAM-1 (R & D systems) solution diluted with buffer A (0.1 M NaHCO3, pH 9.6) was added to a micro titer plate having 96 wells (Nunc Maxisorp). After the incubation at 4° C. overnight, unbound VCAM-1 was removed by washing once with PBS. After completion of the washing, a buffer (buffer B) obtained by diluting Block Ace® (Dainippon Pharmaceutical Co., Ltd.) with PBS to 1/4 concentration was added in an amount of 150 μl/well. After the incubation at room temperature for 1 hour, buffer B was removed and the plate was washed with PBS once.
Jurkat cells were washed with Dulbecco modified Eagle medium (SIGMA, hereinafter referred to as “DMEM”) twice and then incubated in DMEM containing 10 μg/ml of Calcein-AM (Wako Pure Chemical Industries, Ltd.) at 37° C. in dark place for 30 minutes to label with fluorescence. The cells were again suspended in a binding buffer (20 mM HEPES, DMEM containing 0.1% BSA).
(§2) 50 μl of a test substance of various concentrations obtained by the dilution with the binding buffer was added to the plate. Immediately thereafter, 50 μl (final volume: 100 μl/well) of the fluorescent Jurkat cells (4×10^6 cells/ml) were added thereto, and they were incubated at room temperature for 30 minutes. After the shaking on a plate shaker (IKA MTS-4) at 800 rpm for 30 seconds, the solution was immediately removed to remove the unbound cells. The fluorescence quantity of the bound cells remaining in the wells was determined with a fluorescent plate reader (Wallac 1420 ARVO multi-label counter) (filter excitation wave length: 485 nm, emission wave length: 535 nm). The fluorescent strength thus obtained is proportional to the number of Jurkat cells bound to VCAM-1 and remaining on the plate. The binding rate of each test material in various concentrations was determined while the fluorescent strength of the test material-free well was determined to be 100%. The concentration IC50 for the 50% binding inhibition was calculated.
(§3) The activities were classified into group A wherein IC50 was 0.02 μmol/l or below, group B wherein IC50 was higher than 0.02 μmol/l and not above 0.1 μmol/l, group C wherein IC50 was higher than 0.1 μmol/l and not above 2 μmol/l, and group D wherein IC50 was higher than 2 μmol/l and not above 10 μmol/l.

integrin α4β7 = molecular target: T2, integrin α4β7 (Homo sapiens, UniProt P13612+P26010); experiment: VCAM antagonistic activity (VCAM-1/α4β7 binding assay); format: cell-based; details: RPMI-8866 cells binding to VCAM-1; read-out: VCAM antagonistic activity (IC50) α4β7
T2 construct: lymphoma cell strain RPMI-8866 of human B cells, known to express integrin α4β7; endogenous in cells; host or cells: RPMI-8866 (human B lymphoma cell line)
T2 sequence (P13612 34-1032): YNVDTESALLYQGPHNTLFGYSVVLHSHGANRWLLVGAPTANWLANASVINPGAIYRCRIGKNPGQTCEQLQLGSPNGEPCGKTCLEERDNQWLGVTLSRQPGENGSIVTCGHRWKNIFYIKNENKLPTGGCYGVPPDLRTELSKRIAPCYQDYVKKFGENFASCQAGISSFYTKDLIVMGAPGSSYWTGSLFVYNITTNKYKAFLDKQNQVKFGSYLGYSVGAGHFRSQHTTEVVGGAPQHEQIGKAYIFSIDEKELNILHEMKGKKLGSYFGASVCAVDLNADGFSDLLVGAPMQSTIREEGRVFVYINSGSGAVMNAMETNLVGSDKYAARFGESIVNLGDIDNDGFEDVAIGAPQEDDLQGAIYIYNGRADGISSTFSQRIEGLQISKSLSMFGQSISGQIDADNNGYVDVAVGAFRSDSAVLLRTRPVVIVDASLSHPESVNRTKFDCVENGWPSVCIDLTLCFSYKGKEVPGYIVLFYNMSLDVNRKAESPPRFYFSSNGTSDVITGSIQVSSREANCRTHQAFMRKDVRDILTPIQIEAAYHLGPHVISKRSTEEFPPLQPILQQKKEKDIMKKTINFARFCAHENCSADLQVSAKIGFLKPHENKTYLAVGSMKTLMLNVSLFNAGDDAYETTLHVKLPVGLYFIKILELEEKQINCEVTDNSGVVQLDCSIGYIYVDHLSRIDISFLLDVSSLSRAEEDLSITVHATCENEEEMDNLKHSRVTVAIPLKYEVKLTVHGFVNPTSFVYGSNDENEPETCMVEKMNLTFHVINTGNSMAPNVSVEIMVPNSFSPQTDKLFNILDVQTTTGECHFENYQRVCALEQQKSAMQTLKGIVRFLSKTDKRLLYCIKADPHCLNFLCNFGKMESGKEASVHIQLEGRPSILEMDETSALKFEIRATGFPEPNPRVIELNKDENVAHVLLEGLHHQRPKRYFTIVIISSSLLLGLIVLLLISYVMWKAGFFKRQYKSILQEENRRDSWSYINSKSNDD
T2 sequence (P26010 20-798): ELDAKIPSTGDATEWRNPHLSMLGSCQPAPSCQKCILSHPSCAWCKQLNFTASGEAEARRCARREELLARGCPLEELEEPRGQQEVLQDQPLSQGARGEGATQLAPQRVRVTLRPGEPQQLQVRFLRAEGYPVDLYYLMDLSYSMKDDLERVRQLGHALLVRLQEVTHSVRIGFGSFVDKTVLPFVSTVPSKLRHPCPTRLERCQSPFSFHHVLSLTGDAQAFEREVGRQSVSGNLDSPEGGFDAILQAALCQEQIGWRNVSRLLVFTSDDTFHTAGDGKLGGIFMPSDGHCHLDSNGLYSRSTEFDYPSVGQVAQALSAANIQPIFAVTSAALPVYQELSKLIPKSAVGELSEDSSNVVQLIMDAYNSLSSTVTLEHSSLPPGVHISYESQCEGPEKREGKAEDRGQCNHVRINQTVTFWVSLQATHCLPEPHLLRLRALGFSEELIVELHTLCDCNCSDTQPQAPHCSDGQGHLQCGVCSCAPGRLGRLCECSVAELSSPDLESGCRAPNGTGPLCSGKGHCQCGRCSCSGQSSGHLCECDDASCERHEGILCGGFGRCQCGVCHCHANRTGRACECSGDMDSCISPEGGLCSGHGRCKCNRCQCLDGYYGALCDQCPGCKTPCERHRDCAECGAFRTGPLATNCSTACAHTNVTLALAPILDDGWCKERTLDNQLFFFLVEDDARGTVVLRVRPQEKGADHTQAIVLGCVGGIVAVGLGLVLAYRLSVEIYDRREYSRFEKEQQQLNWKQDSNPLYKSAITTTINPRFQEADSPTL
Experimental: (Test Example) VCAM Antagonistic Activity (VCAM-1/α4β7 Binding Assay):
The capacity of a test substance antagonistic to the binding of lymphoma cell strain RPMI-8866 of human B cells, known to express integrin α4β7, to VCAM-1 was determined.
as §1
RPMI-8866 cells were incubated in Dulbecco modified Eagle medium containing 10 μg/ml of Calcein-AM (Wako Pure Chemical Industries, Ltd.) (SIGMA, hereinafter referred to as “DMEM”) at 37° C. for 30 minutes to label with fluorescence. The cells were again suspended in a binding buffer (20 mM HEPES, DMEM containing 0.1% BSA) containing 4 mM of MnCl2.
as §2, with “RPMI-8866” for “Jurkat”
as §3

T1 sequence (P05556 21-798, one chain of several): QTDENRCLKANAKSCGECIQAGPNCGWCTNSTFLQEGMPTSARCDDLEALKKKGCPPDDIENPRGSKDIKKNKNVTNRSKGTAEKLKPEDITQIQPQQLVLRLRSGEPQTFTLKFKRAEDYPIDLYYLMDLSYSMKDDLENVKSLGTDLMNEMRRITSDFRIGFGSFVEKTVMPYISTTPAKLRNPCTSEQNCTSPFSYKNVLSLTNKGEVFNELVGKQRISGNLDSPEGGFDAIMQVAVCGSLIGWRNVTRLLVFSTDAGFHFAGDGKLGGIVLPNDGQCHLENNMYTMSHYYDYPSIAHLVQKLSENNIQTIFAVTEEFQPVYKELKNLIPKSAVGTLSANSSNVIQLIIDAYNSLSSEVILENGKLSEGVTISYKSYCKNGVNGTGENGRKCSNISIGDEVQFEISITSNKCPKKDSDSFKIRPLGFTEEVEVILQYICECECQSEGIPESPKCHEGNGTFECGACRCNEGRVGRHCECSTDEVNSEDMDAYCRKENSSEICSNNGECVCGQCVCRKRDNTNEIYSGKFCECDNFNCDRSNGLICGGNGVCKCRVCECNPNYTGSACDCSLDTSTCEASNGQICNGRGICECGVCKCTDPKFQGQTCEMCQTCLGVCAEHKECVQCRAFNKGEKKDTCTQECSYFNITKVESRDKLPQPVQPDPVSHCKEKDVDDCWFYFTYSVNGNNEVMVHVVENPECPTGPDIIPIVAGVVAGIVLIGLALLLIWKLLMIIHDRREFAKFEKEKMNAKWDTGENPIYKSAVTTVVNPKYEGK

Compound	IC50 (integrin α4β1) [nM]	IC50 (integrin α4β7) [nM]
CCC(C)(C(=O)NC(Cc1ccc(OCc2c(Cl)cccc2Cl)cc1)C(=O)O)C(=O)N1CCCC1 (mixture of isomers) [Example 38]	100 to 2000	100 to 2000
CCC(CC)(C(=O)NC(Cc1ccc(OCc2c(Cl)cccc2Cl)cc1)C(=O)O)C(=O)N1CCC(N)C1 (mixture of isomers) [Example 47]	100 to 2000	< 20
CCC(CC)(C(=O)NC(Cc1ccc(OCc2c(Cl)cccc2Cl)cc1)C(=O)O)C(=O)N1CCCC(O)C1 (mixture of isomers) [Example 48]	100 to 2000	20 to 100
CN(C)C(=O)C(C)(C)C(=O)N[C@@H](Cc1ccc(OCc2c(Cl)cccc2Cl)cc1)C(=O)O [Example 2, N-[2-(dimethylaminocarbonyl)-2-methyl-propanoyl]-O-(2,6-dichlorobenzyl)-L-tyrosine]	100 to 2000	20 to 100
CCC(CC)(C(=O)N[C@@H](Cc1ccc(OCc2c(Cl)cccc2Cl)cc1)C(=O)O)C(=O)N(C)C [Example 3]	100 to 2000	< 20
CCC(CC)(C(=O)Nc1ccc(O)cc1)C(=O)N[C@@H](Cc1ccc(OCc2c(Cl)cccc2Cl)cc1)C(=O)O [Example 5]	100 to 2000	100 to 2000
CCC(CC)(C(=O)NCCc1ccc(O)cc1)C(=O)N[C@@H](Cc1ccc(OCc2c(Cl)cccc2Cl)cc1)C(=O)O [Example 6]	2000 to 10000	100 to 2000
CCC(CC)(C(=O)N[C@@H](Cc1ccc(OCc2c(Cl)cccc2Cl)cc1)C(=O)O)C(=O)N1CCN(c2ccc(O)cc2)CC1 [Example 7]	100 to 2000	100 to 2000
CN(C)C(=O)C1(C(=O)N[C@@H](Cc2ccc(OCc3c(Cl)cccc3Cl)cc2)C(=O)O)CCCC1 [Example 8]	100 to 2000	100 to 2000
O=C(O)[C@H](Cc1ccc(OCc2c(Cl)cccc2Cl)cc1)NC(=O)C1(C(=O)N2CCN(c3ccc(O)cc3)CC2)CCCC1 [Example 9]	100 to 2000	100 to 2000
CCC(CC)(C(=O)N[C@@H](Cc1ccc(OCc2c(Cl)cccc2Cl)cc1)C(=O)O)C(=O)N1CCCCC1 [Example 17]	100 to 2000	100 to 2000
CN(C)C(=O)C1(C(=O)N[C@@H](Cc2ccc(OCc3c(Cl)cccc3Cl)cc2)C(=O)O)CC1 [Example 21]	2000 to 10000	100 to 2000
CN(C)C(=O)C1(C(=O)N[C@@H](Cc2ccc(OCc3c(Cl)cccc3Cl)cc2)C(=O)O)CCC1 [Example 29]	100 to 2000	100 to 2000
CCC(CC)(C(=O)N[C@@H](Cc1ccc(OCc2c(Cl)cccc2Cl)cc1)C(=O)O)C(=O)N1CCOCC1 [Example 34]	100 to 2000	20 to 100

Further lines, results first:

IC50 (integrin α4β1) [nM]	IC50 (integrin α4β7) [nM]	Compound
2000 to 10000	20 to 100	CCCC(CC)(C(=O)NC(Cc1ccc(OCc2c(Cl)cccc2Cl)cc1)C(=O)O)C(=O)N1CCCC1 (mixture of isomers) [Example 37]
100 to 2000	< 20	CCC(CCOC)(C(=O)NC(Cc1ccc(OCc2c(Cl)cccc2Cl)cc1)C(=O)O)C(=O)N1CCCC1 (mixture of isomers) [Example 43]
100 to 2000	20 to 100	CCC(CC)(C(=O)NC(Cc1ccc(OCc2c(Cl)cccc2Cl)cc1)C(=O)O)C(=O)N1CCCCC1C(N)=O (mixture of isomers) [Example 51]
100 to 2000	100 to 2000	CCC(CC)(C(=O)NC(Cc1ccc(OCc2c(Cl)cccc2Cl)cc1)C(=O)O)C(=O)N1CCCC(CO)C1 (mixture of isomers) [Example 60]
20 to 100	< 20	CCC(CC)(C(=O)N[C@@H](Cc1ccc(OCc2c(Cl)cccc2Cl)cc1)C(=O)O)C(=O)N1C[C@@H](O)[C@H](O)C1 (relative stereo) [Example 83, N-(2-{[(trans-3,4-dihydroxypyrrolidine)-1-yl]carbonyl}-2-ethyl-butanoyl)-O-(2,6-dichlorobenzyl)-L-tyrosine]
2000 to 10000	100 to 2000	CN(C(=O)C1(C(=O)N[C@@H](Cc2ccc(OCc3c(Cl)cccc3Cl)cc2)C(=O)O)CC1)c1ccccc1 [Example 23]
100 to 2000	20 to 100	CCC(CC)(C(=O)N[C@@H](Cc1ccc(OCc2c(Cl)cccc2Cl)cc1)C(=O)O)C(=O)N1CCCC1 [Example 32]
100 to 2000	20 to 100	CC(C)(C(=O)N[C@@H](Cc1ccc(OCc2c(Cl)cccc2Cl)cc1)C(=O)O)C(=O)N1CCCC1 [Example 33]

Source: US7160874B2, “Phenylalanine derivatives” (Ajinomoto Co., Inc., priority 1999, dated 2007)
